Results reported in article PMC12615753, “Glutathione as a taste modulator: molecular mechanisms of interaction with umami and sweet taste receptors” (Food Chemistry: Molecular Sciences, 2025).

Molecular target: T1, hTAS1R1 D192A/rTAS1R3 (UniProt Q7RTX1+Q923K1, D192A)
T1 construct: UniProtKB number Q7RTX1–1); The cDNA coding region of rTAS1R3 was synthesized with optimized-codon usage for human expression; expressed in transfected cells; host or cells: HEK293T/17
T1 sequence (Q7RTX1 21-841 D192A): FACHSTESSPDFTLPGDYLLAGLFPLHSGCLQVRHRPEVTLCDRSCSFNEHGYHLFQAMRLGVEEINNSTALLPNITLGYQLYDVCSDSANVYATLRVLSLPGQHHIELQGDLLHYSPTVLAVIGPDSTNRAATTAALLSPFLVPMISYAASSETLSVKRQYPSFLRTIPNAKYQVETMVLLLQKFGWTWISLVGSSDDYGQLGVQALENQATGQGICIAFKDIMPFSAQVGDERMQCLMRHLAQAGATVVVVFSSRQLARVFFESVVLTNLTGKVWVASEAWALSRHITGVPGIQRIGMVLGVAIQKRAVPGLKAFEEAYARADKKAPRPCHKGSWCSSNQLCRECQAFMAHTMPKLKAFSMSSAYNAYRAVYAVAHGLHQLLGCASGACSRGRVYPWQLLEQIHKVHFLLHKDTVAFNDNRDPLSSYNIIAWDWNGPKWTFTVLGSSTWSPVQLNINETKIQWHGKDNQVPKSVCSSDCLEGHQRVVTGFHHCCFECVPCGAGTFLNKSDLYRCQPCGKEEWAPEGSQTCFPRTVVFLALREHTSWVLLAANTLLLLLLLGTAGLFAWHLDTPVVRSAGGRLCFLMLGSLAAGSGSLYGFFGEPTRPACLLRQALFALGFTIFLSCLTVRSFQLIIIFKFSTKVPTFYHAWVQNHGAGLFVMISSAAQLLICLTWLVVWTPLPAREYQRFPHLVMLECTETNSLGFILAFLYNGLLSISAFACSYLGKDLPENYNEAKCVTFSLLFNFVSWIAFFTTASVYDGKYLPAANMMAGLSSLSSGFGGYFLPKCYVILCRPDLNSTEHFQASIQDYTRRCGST
T1 sequence (Q923K1 21-858): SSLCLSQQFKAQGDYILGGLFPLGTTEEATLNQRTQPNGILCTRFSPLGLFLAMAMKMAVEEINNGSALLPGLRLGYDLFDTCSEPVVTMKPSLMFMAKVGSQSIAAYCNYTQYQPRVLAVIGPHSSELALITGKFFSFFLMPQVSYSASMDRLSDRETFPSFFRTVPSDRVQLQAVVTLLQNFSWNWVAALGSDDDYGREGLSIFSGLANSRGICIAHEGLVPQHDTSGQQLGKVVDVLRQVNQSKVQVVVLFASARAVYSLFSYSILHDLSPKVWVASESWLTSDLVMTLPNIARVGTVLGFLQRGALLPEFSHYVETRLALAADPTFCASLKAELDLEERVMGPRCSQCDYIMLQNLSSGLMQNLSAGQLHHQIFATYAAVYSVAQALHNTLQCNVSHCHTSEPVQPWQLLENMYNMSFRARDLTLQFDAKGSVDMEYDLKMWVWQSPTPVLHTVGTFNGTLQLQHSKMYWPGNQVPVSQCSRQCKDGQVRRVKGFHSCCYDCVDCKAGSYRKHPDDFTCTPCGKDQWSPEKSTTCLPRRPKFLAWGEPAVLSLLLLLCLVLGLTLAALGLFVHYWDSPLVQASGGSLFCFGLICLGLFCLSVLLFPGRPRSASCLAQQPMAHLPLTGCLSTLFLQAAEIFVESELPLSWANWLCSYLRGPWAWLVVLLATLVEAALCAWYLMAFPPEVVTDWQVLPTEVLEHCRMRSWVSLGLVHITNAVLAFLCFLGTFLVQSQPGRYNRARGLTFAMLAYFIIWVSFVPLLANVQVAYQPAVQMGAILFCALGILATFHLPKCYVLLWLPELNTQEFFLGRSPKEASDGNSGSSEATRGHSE
Test: cell-based
Assay type: cell-based, human, rat
Excerpt: Chimeric Gα proteins, such as Gα16Gust44, Gα16Gi3 or Gα15i2, are widely used in the functional expression of TAS1R receptors ([Backes et al., 2015]; [Suess et al., 2015]; [Toda et al., 2021], [Toda et al., 2013], [Toda et al., 2018]; [Zhang et al., 2008]). Chimeric Gα15i2 (([Toda et al., 2013]), Supplementary data) was generated by replacing the last five residues of the C-terminal tail of rat Gα15i2 (EINLL) (UniProt number G3V6N8; https://www.uniprot.org/uniprot/) with the counterpart sequence from human GNAI2 (DCGLF) (UniProt number P04899-1) and cloning into the pcDNA3.1/Hygro vector (Invitrogen, Thermo Fisher Scientific, Illkirch, France) between the HindIII and NotI restriction sites, resulting in the plasmid pcDNA3.1-Gα15i2. Chimeric Gα16Gust44 construct have already been reported ([Raliou et al., 2011]). Briefly, Gα16Gust44 was generated by replacing the C-terminal of Gα16 with the C-terminal 44 residues of gustducin. As previously described, hTAS1R1 was amplified from human fungiform papillae cDNA and cloned and inserted into pcDNA3 (Invitrogen), generating pcDNA3-TAS1R1-WT (wild-type) ([Raliou et al., 2011]). […] The cDNA coding region of rTAS1R3 was synthesized with optimized-codon usage for human expression (Genewiz) and was cloned and inserted into the mammalian pcDNA4/myc-HisA (Invitrogen) expression vector between the EcoRI and NotI restriction sites, resulting in the plasmid pcDNA4-rTAS1R3. […] The sequence integrity of all the plasmid constructs was verified via automated DNA sequencing (Genewiz).
The hTAS1R1 mutants were co-expressed with the rTAS1R3 subunit in HEK293 cells. […] As a control, the functionality of the mutated receptors was checked after stimulation with S807 (Fig. S8), which interacts with TAS1R1-TMD ([Zhang et al., 2008]).

N[C@@H](CCC(=O)N[C@@H](CS)C(=O)NCC(=O)O)C(=O)O [GSH, γ-L-glutamyl-L-cysteinyl-glycine]
EC50: 3.25 ± 0.061 mM | effect of the added compound (1 mM) on the response to L-Glu (D192A): synergy was observed | response to the agonist alone, vs WT (D192A): significantly increased the initial amplitude | Max ∆F/F0 (D192A, GSH): 0.65 ± 0.01 | R1 = mutant EC50/WT EC50 (D192A, GSH): 1.3
